Data from patent US20040110821A1, “GAL3 receptor antagonists for the treatment of affective disorders” (priority 2002, published 2004).

Target: T1, DA transporter (Rattus norvegicus, UniProt P23977)
T1 construct: native, tissue-derived transporters; from tissue
Assay: Binding at native DA transporter
Settings: read-out: rDA Uptk Ki
Description: The methods to determine binding affinity at native transporters are described in the following publications: 5HT transporter and NE transporter (Owens et al., 1997), and DA transporter (Javitch et al, 1984).
Binding data were analyzed using nonlinear regression and statistical techniques available in the GraphPAD Prism package (San Diego, Calif.). Enzymatic assay data were derived from a standard curve of reference compound data.

T1 sequence (P23977 whole entry): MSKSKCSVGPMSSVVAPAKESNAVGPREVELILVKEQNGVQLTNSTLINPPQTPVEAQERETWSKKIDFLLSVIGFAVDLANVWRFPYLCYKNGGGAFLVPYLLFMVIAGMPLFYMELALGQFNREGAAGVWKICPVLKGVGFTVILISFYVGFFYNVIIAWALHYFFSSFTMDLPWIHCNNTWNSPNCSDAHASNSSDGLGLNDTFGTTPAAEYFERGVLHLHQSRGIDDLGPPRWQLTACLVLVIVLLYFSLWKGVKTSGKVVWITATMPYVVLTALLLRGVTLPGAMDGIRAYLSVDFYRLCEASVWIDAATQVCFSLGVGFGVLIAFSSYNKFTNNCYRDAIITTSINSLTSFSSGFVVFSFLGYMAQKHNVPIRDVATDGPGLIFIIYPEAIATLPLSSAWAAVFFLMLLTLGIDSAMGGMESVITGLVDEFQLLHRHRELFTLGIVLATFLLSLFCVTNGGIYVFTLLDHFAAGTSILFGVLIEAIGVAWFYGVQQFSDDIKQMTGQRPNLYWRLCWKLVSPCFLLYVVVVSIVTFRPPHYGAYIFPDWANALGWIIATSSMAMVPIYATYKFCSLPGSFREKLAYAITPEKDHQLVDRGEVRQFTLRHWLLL

Q: Which Ki does the source give for `O=C1C(=Nc2cccc(C(F)(F)F)c2)c2ccccc2N1c1ccccc1` [Example 92, 1-PHENYL-3-[[3-(TRIFLUOROMETHYL)PHENYL]IMINO]-1,3-DIHYDRO-2H-INDOL-2-ONE] here?
A: The Ki was 17.8 µM.
